Data reported in article PMC4039224, “Cadherin-11 in poor prognosis malignancies and rheumatoid arthritis: common target, common therapies” (Oncotarget, 2013).
Each block holds one compound with its values, some of them ahead of it.

Experiments:
[1] = target: T1, mouse CDH11 (EC1-2 domain) (Mus musculus, UniProt P55288); assay: SPR competition of homophilic CDH11 binding, Biacore T200 CM5; conditions: 6.25-200 uM compound co-injected with 2.5 uM EC1-2; pH 7.4 HEPES, 150 mM NaCl, 3 mM CaCl2, 1% DMSO; inhibits homodimerization, W-binding pocket (modelled); salt form ambiguous (b61 vs Table 1)
T1 construct: extracellular domains EC1-EC2 only; wild-type soluble EC1-2, and C-terminally cysteine-tagged EC1-2 immobilised on the SPR chip; forms homodimer
T1 sequence (P55288 54-268 limits assumed): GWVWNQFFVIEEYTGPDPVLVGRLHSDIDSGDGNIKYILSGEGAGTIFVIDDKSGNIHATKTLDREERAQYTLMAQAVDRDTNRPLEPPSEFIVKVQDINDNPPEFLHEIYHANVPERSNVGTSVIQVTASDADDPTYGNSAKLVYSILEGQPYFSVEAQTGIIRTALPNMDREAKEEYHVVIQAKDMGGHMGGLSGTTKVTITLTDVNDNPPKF

[2] = target: T1, mouse CDH11 (EC1-2 domain); assay: native gel, dimer fraction; assay type: binding; conditions: 1:1 molar ratio with purified CDH11 EC1-2, compound in DMSO; inhibits homodimerization; species of the gel protein not stated again
[3] = target: wild type mouse cadherin-11 (CDH11) EC1-2 (mouse); assay: native gel or EMSA; purified CDH11 EC1-2 without and with celecoxib (in DMSO, 1:1 molar ratio); monomer and dimer fractions

Compound: Oc1ccc(-c2cccnc2-c2ccccc2)cc1 [Sd-133, 4-(2-phenyl-3-pyridyl)phenol]
SPR competition of homophilic CDH11 binding, Biacore T200 CM5 [1]: Sd-133 competed with CDH11 (ligand) in binding to immobilized CDH11 protein

Compound: Cc1ccc(-c2cc(C(F)(F)F)nn2-c2ccc(S(N)(=O)=O)cc2)cc1 [celecoxib, 4-[5-(4-methylphenyl)-3-(trifluoromethyl)pyrazol-1-yl]benzenesulfonamide]
native gel, dimer fraction [2]: Note that celecoxib reduces the dimer fraction

stoichiometry N [3]: 2
Compound: wild type mouse cadherin-11 (CDH11) EC1-2 (domain or fragment)
